Assay in all cases: DSF 100 kinase selectivity screen;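 note: compound tested at 20 µM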
Common to all, as to format: binding

Experiment [1] has as its target T1, ~100 representative kinases (Homo sapiens, UniProt O95747).
T1 construct: Recombinant protein kinase domains with a concentration of 2 μM
Particulars: protein OSR1; average of three replicates. In a few lines:
(§1)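 Each kinase domain, at 2 μM, is mixed with 20 μM test compound and SYPRO Orange in Hepes (20 mM, pH 7.5) with 500 mM NaCl. Temperature is then raised at 3°C/min and fluorescence-monitored unfolding yields the melting temperature change, ΔTm in degrees Celsius.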

In experiment [2] the target is T2, ~100 representative kinases (Homo sapiens, UniProt P29317).
T2 construct: Recombinant protein kinase domains with a concentration of 2 μM
The settings on record: Protein EPHA2; average of three replicates. The procedure, abridged:
as §1

Experiment [3] has as its target T3, ~100 representative kinases (Homo sapiens, UniProt Q16566).
T3 construct: Recombinant protein kinase domains with a concentration of 2 μM
T3 sequence (Q16566 1-473): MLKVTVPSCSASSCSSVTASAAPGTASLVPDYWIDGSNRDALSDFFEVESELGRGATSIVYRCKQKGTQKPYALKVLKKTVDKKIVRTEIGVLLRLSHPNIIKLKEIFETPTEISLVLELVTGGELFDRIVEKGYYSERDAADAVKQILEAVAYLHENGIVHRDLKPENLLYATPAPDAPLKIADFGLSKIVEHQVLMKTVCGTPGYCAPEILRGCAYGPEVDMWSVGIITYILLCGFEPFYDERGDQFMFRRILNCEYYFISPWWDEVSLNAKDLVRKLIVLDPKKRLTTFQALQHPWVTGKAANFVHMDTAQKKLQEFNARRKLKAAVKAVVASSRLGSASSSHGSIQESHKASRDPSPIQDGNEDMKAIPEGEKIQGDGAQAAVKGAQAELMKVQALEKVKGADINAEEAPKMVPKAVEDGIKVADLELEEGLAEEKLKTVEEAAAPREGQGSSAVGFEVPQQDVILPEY
The settings on record: Protein CAMK4; average of three replicates. The procedure, abridged:
as §1

The target in experiment [4] is T4, ~100 representative kinases (Homo sapiens, UniProt P28482).
T4 construct: Recombinant protein kinase domains with a concentration of 2 μM
The settings on record: protein MAPK1; average of three replicates. In a few lines:
as §1

The target of experiment [5] is T5, ~100 representative kinases (Homo sapiens, UniProt O96013).
T5 construct: Recombinant protein kinase domains with a concentration of 2 μM
Particulars: protein PAK4; average of three replicates. In a few lines:
as §1

For experiment [6], the target named is T6, ~100 representative kinases (Homo sapiens, UniProt Q09013).
T6 construct: Recombinant protein kinase domains with a concentration of 2 μM
T6 sequence (Q09013 1-629): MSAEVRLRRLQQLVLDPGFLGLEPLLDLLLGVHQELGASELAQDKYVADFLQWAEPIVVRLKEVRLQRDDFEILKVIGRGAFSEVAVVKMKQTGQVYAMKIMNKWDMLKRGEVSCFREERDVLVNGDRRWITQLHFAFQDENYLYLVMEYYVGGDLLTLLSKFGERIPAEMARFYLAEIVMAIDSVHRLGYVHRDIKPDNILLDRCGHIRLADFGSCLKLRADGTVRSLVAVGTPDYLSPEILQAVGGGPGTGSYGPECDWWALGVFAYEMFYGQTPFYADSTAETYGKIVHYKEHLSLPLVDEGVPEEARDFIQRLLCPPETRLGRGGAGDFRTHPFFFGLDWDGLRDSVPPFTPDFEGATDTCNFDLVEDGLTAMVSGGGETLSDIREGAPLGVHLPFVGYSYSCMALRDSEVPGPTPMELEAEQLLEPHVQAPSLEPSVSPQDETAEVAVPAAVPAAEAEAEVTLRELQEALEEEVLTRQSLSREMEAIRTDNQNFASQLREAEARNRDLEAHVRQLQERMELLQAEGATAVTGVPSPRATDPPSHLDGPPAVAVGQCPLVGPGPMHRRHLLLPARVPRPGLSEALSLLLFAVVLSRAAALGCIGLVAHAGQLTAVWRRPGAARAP
Particulars: Protein DMPK1; average of three replicates. The procedure, abridged:
as §1

The target of experiment [7] is T7, ~100 representative kinases (Homo sapiens, UniProt Q96L34).
T7 construct: Recombinant protein kinase domains with a concentration of 2 μM
T7 sequence (Q96L34 1-752): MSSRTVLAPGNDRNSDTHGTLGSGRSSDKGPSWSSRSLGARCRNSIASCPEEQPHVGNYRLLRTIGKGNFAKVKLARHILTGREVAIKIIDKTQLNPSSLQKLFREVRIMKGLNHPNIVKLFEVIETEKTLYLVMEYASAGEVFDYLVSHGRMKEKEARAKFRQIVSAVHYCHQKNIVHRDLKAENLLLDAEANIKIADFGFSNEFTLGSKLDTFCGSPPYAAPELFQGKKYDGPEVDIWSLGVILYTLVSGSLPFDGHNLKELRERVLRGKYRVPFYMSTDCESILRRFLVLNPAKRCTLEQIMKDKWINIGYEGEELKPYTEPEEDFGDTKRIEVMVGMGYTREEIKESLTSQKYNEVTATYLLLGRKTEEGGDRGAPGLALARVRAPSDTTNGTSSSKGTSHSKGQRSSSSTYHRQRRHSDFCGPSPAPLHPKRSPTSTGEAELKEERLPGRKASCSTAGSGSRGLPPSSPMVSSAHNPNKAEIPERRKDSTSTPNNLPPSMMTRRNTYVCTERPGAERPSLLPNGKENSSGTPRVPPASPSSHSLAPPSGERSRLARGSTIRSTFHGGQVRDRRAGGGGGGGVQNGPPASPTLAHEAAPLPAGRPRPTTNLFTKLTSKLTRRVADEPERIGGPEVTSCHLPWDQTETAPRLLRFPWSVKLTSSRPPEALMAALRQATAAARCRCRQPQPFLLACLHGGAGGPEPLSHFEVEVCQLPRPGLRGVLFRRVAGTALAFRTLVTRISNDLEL
Particulars: protein MARK4; average of three replicates. In a few lines:
as §1

For experiment [8], the target named is T8, ~100 representative kinases (Homo sapiens, UniProt Q9UPE1).
T8 construct: Recombinant protein kinase domains with a concentration of 2 μM
Particulars: Protein SRPK3; DSF; average of three replicates. The procedure, abridged: as §1

For 13 molecules, dTm results are on record in article PMC12136037, “Type II kinase inhibitors that target Parkinson’s disease–associated LRRK2” (Science Advances, 2025).

T1 sequence (O95747 whole entry, the tested form may be a part): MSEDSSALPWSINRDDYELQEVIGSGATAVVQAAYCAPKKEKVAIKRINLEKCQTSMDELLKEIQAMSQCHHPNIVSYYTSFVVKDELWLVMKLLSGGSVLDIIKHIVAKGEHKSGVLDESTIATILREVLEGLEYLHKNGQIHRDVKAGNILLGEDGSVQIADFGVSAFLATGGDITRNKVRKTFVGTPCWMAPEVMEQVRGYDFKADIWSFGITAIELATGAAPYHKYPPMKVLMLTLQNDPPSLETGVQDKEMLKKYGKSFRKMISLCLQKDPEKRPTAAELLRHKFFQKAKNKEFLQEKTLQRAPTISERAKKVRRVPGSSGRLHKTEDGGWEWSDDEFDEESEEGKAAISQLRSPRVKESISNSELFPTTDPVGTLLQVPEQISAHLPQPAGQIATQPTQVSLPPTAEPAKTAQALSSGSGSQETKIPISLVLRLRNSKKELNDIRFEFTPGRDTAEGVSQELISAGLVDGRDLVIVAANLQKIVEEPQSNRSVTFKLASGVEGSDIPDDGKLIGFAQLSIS
T5 sequence (O96013 whole entry, the tested form may be a part): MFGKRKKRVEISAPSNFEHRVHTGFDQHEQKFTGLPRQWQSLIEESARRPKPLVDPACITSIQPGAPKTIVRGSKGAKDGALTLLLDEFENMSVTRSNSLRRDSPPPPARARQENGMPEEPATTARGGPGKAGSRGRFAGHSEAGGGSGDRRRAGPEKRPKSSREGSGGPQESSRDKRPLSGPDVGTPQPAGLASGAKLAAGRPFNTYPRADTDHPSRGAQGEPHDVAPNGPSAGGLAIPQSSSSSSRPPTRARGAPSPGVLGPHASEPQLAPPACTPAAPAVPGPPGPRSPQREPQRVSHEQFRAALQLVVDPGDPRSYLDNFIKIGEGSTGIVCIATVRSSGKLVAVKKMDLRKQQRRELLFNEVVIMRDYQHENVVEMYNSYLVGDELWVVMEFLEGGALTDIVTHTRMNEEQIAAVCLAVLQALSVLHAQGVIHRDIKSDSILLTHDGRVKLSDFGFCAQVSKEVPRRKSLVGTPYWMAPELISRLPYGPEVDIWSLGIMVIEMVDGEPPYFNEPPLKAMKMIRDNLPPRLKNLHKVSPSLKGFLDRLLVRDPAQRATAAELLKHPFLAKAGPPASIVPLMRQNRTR
T2 sequence (P29317 24-976): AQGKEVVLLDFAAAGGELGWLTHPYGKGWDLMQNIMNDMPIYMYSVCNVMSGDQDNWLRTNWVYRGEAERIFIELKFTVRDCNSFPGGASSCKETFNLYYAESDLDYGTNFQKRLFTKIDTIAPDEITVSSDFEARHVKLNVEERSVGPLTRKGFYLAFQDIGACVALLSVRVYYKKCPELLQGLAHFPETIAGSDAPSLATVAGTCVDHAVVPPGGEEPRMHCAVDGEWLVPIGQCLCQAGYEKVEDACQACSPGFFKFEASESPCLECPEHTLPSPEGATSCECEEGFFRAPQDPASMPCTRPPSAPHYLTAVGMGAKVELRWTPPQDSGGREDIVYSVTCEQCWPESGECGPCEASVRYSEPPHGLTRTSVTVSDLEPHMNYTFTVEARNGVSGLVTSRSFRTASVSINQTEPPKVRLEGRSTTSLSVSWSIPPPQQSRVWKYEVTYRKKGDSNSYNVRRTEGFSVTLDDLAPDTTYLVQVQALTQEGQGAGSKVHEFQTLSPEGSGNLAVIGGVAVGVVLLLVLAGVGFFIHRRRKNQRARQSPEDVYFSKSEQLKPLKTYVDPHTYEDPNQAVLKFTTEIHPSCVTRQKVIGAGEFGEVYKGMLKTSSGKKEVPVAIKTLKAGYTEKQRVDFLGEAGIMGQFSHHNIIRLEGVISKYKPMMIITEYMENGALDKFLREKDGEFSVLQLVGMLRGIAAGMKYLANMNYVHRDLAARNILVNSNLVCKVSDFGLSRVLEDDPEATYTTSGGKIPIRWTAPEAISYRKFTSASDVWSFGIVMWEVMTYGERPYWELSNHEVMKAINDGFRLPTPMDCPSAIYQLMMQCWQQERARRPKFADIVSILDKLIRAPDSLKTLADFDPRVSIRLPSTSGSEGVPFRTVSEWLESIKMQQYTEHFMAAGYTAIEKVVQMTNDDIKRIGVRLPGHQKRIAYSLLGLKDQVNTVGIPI
T8 sequence (Q9UPE1 whole entry, the tested form may be a part): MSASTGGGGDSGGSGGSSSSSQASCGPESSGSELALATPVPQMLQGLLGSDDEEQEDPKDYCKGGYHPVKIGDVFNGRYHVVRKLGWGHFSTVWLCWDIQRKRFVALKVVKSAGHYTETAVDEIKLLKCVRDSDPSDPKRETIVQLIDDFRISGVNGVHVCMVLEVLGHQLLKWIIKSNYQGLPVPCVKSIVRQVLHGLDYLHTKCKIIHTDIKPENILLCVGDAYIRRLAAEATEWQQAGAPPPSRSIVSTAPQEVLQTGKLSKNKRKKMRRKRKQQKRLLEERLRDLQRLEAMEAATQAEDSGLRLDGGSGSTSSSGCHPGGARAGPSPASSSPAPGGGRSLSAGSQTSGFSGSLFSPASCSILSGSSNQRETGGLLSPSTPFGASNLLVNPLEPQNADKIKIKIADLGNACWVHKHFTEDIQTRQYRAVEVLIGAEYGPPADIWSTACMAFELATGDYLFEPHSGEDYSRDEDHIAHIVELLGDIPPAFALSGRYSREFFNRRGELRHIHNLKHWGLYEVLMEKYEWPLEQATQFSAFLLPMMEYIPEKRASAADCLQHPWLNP
T4 sequence (P28482 whole entry, the tested form may be a part): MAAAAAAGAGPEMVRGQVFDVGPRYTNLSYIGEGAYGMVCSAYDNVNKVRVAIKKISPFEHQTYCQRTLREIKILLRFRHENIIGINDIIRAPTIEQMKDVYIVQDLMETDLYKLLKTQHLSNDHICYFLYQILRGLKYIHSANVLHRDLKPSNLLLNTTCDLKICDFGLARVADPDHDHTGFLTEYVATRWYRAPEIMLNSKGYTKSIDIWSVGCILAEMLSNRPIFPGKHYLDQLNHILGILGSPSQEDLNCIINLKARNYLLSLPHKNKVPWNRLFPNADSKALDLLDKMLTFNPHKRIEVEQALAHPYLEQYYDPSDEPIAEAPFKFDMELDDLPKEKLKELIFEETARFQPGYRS

For the molecule `CCc1ccc(NC(=O)C2(C(=O)Nc3cccc(-c4c[nH]c5ncnc(N6CCOCC6)c45)c3)CC2)cc1` [Compound 15], the dTm is 0.69 K in experiment [1]; 4.88 K in experiment [2]; 2.51 K in experiment [3]; -0.47 K in experiment [4]; -0.0471 K in experiment [5]; -1.02 K in experiment [6]. The dTm is listed as 4.84 K in experiment [7] and 3.89 K in experiment [8].
Take `COc1ccc(NC(=O)C2(C(=O)Nc3cccc(-c4c[nH]c5ncnc(N6CCOCC6)c45)c3)CC2)cc1` [Compound 16]: the dTm in experiment [1] is recorded as 0.35 K; in experiment [2], 1.72 K; in experiment [3], -0.20 K; in experiment [4] it was -0.34 K; in experiment [5], -0.80 K; in experiment [6] it was -0.98 K. In addition, the dTm was 2.27 K in experiment [7] and 2.74 K in experiment [8].
`O=C(Nc1cccc(-c2c[nH]c3ncnc(N4CCOCC4)c23)c1)C1(C(=O)Nc2ccc(F)c(F)c2)CC1` [Compound 17]: the dTm in experiment [1] is 2.20 K; in experiment [2], 4.47 K; in experiment [3], 1.60 K; in experiment [4], -0.20 K; in experiment [5], 0.06 K; in experiment [6], -0.94 K. Moreover, the dTm in experiment [7] amounted to 3.95 K; in experiment [8], 5.74 K.
On to `O=C(Nc1cccc(-c2c[nH]c3ncnc(N4CCOCC4)c23)c1)C1(C(=O)Nc2ccc(F)c(Cl)c2)CC1` [Compound 18], for which the dTm was 0.31 K in experiment [1]; 4.93 K in experiment [2]; 3.34 K in experiment [3]; 0.11 K in experiment [4]; 0.49 K in experiment [5]; -0.69 K in experiment [6]. The dTm in experiment [7] is listed as 4.93 K; in experiment [8] it was 7.93 K.
In the case of `O=C(Nc1cccc(-c2c[nH]c3ncnc(N4CCOCC4)c23)c1)C1(C(=O)Nc2ccc(F)c(Br)c2)CC1` [Compound 19], the dTm in experiment [1] is 1.49 K; in experiment [2], 4.87 K; in experiment [3], 4.72 K; in experiment [4] it was -0.09 K; in experiment [5], 1.11 K; in experiment [6] it was -0.17 K. For the same molecule, the figures for the dTm in experiment [7] and in experiment [8] were 5.43 K and 6.39 K, respectively.
Take `Cc1cc(NC(=O)C2(C(=O)Nc3cccc(-c4c[nH]c5ncnc(N6CCOCC6)c45)c3)CC2)ccc1F` [Compound 20]: the dTm in experiment [1] is reported as 1.31 K; in experiment [2] it was 6.64 K; in experiment [3] it was 4.77 K; in experiment [4], 0.024 K; in experiment [5], -0.11 K; in experiment [6], -1.17 K. Besides, the dTm in experiment [7] was 6.75 K; in experiment [8], 10.86 K.
`COc1cc(NC(=O)C2(C(=O)Nc3cccc(-c4c[nH]c5ncnc(N6CCOCC6)c45)c3)CC2)ccc1F` [Compound 21]: the dTm in experiment [1] is on record as 1.79 K; in experiment [2], 2.31 K; in experiment [3] it was 2.09 K; in experiment [4], -0.09 K; in experiment [5] it was -0.79 K; in experiment [6], -1.06 K. Also, the values for the dTm in experiment [7] and in experiment [8] were 4.12 K and 6.98 K, respectively.
Consider `CC(C)(C)c1cccc(NC(=O)C2(C(=O)Nc3cccc(-c4c[nH]c5ncnc(N6CCOCC6)c45)c3)CC2)c1` [Compound 22], for which the dTm is 4.04 K in experiment [1]; 3.30 K in experiment [2]; 1.51 K in experiment [3]; 0.30 K in experiment [4]; 0.76 K in experiment [5]; -0.60 K in experiment [6]. Besides, the dTm in experiment [7] is reported as 4.58 K; in experiment [8], 4.39 K.
On to `O=C(Nc1cccc(-c2c[nH]c3ncnc(N4CCOCC4)c23)c1)C1(C(=O)Nc2ccc(F)cc2F)CC1` [Compound 23], for which the dTm in experiment [1] is recorded as 1.41 K; in experiment [2] it was 4.60 K; in experiment [3], 0.57 K; in experiment [4], -0.16 K; in experiment [5] it was -0.00913 K; in experiment [6], -0.57 K. Moreover, the dTm in experiment [7] stood at 2.83 K; in experiment [8], 4.09 K.
Turning to `Cc1cc(F)ccc1NC(=O)C1(C(=O)Nc2cccc(-c3c[nH]c4ncnc(N5CCOCC5)c34)c2)CC1` [Compound 24], the dTm in experiment [1] was 0.69 K; in experiment [2], 3.46 K; in experiment [3] it was 0.42 K; in experiment [4], -0.19 K; in experiment [5] it was -0.47 K; in experiment [6] it was -1.04 K. The dTm in experiment [7] was 2.55 K; in experiment [8], 1.90 K.
As to `O=C(Nc1cccc(-c2c[nH]c3ncnc(N4CCOCC4)c23)c1)C1(C(=O)Nc2cc(Br)c(F)cc2F)CC1` [Compound 25], the dTm is on record as 0.13 K in experiment [1]; 1.14 K in experiment [2]; 1.53 K in experiment [3]; -0.0637 K in experiment [4]; 0.88 K in experiment [5]; 0.24 K in experiment [6]. The values for the dTm in experiment [7] and in experiment [8] were -6.37 K and 3.28 K, respectively.
With `O=C(Nc1cccc(-c2c[nH]c3ncnc(N4CCOCC4)c23)c1)C1(C(=O)Nc2ccc(F)c(Br)c2F)CC1` [Compound 26], the dTm in experiment [1] was -0.0329 K; in experiment [2] it was 2.30 K; in experiment [3], 1.91 K; in experiment [4], -0.03 K; in experiment [5], 0.78 K; in experiment [6], -0.0242 K. For the same molecule, the dTm came out at 1.86 K in experiment [7] and 2.55 K in experiment [8].
For the molecule `O=C(Nc1cc(F)cc(Br)c1)C1(C(=O)Nc2cccc(-c3c[nH]c4ncnc(N5CCOCC5)c34)c2)CC1` [Compound 27], the dTm is 0.75 K in experiment [1]; 0.41 K in experiment [2]; 0.92 K in experiment [3]; 0.0359 K in experiment [4]; 0.52 K in experiment [5]; -0.12 K in experiment [6]. The dTm is on record as 1.77 K in experiment [7] and 0.82 K in experiment [8].
